Laboratory results as given in patent US9149441B2 (priority 2008, dated 2015).

Columns and labels:
[1] = system: red blood cells (RBCs); assay: Potassium release from red blood cells (membrane toxicity); format: cell-based; conditions: all experimental concentrations; solution effect rising up to 0.08 mg/ml
Text: Potassium is found in high concentrations inside the red blood cells (RBCs). Any damage to membrane will result in leaking out of potassium from the RBCs.

[2] = system: S. Aureus; assay: Vancomycin formulations in S. Aureus septic shock rat model; format: in vivo; conditions: for Survival: simultaneous treatment group, peritonitis rat model (Table 8), 15 mg/kg twice/day for 3 days
Experimental: The efficacy of vancomycin nanospheres as compared to the solution formulation was determined in a septic shock rat model.
Three scenarios were evaluated:
Group 1. Determination of the efficacy of the encapsulated and solution formulation of vancomycin. [Pre-treatment Group].
(§1) The nanospheres and solution vancomycin formulations (15 mg/kg twice/day for 3 days) or blank nanospheres (control) were injected to different groups of animals 4 hrs prior to the animals being injected with S. Aureus (i.p.; 1.0×10^8 cfu/mL). Blood samples (0.5 mL) were obtained to determine the bacterial count at 0, 4, 24, 48, 96 and 120 hrs.
Group 2. Determination of the efficacy of the encapsulated and solution formulations of vancomycin. [Simultaneous treatment Group]
(§2) In this set of experiments, S. Aureus bacteria (1.0×10^8 cfu/mL) were administered i.p. and simultaneously the NS and solution gentamicin formulations (15 mg/kg twice/day for 3 days) or blank nanospheres (control) were injected subcutaneously to different groups of rats. Blood samples (0.5 mL) were obtained to determine the bacterial count at 0, 4, 24, 48, 96 and 120 hrs.
Group 3. Determination of the efficacy of the nanosphere and solution formulation of vancomycin. [Delayed treatment Group].
as §2, with “i.p. to different groups of rats” for “i.p.”, “4 hrs following infection” for “simultaneously”, “injected.” for “injected subcutaneously to different groups of rats.”

[3] = system: E. Coli; assay: Gentamicin formulations in E. Coli septic shock (peritonitis) rat model; format: in vivo; conditions: for % inhibition of the bacterial growth in the blood / Bact. count (cfu/mL): 120 hrs; for Bact. count (cfu/mL): blood; for Survival: peritonitis rat model (Table 5)
Experimental: Gentamicin in the solution and the nanosphere form were tested on rats in order to evaluate the E. Coli distribution in the body, also the two formulations were evaluated in septic shock rat models.
Group 1. Determination of the efficacy of the encapsulated and solution formulation of gentamicin. [Pre-treatment Group].
as §1, with “gentamicin” for “vancomycin”, “E. Coli” for “S. Aureus”, “1.1×10^9” for “1.0×10^8”, “samples” for “samples (0.5 mL)”
Group 2. Determination of the efficacy of the encapsulated and solution formulations of gentamicin. [Simultaneous treatment Group]
as §2, with “E. Coli” for “S. Aureus”, “(1.1×10^9” for “(1.0×10^8”, “samples” for “samples (0.5 mL)”
Group 3. Determination of the efficacy of the nanosphere and solution formulation of gentamicin. [Delayed treatment Group].
In this set of experiments, E. Coli bacteria (1.1×10^9 cfu/mL) were administered i.p. to different groups of rats and 4 hrs following infection the NS and solution gentamicin formulations (15 mg/kg twice/day for 3 days) or blank nanospheres (control) were injected. Blood samples were obtained to determine the bacterial count at 0, 4, 24, 48, 96 and 120 hrs.

Row | Molecule | Potassium release from RBCs [1] | Survival [2] [%] | Bacterial count in the blood vs blank BSA nanospheres ([2]; text Group 1, FIG. 14 (prophylactic treatment)) | Bacterial count in the blood vs blank BSA nanospheres ([2]; text Group 2, FIG. 15 (simultaneous treatment)) | Bacterial count in the blood vs blank BSA nanospheres ([2]; text Group 3, FIG. 16 (delayed treatment)) | % inhibition of the bacterial growth in the blood ([3]; delayed treatment group (Table 7), listed as Solution) [%] | % inhibition of the bacterial growth in the blood ([3]; delayed treatment group (Table 7), listed as gentamicin solution) | % inhibition of the bacterial growth in the blood ([3]; prophylactic treatment group (Table 6)) | % inhibition of the bacterial growth in the blood ([3]; simultaneous treatment group (Table 4)) [%] | % inhibition of the bacterial growth in the blood ([3]; simultaneous treatment group (Table 4), listed as gentamicin solution) | Bact. count (cfu/mL) ([3]; delayed treatment group) | Bact. count (cfu/mL) ([3]; simultaneous treatment group, 15 mg/kg twice/day for 3 days) | Survival ([3]; simultaneous treatment group) [%] | Survival ([3]; simultaneous treatment group, listed as gentamicin solution) [%]
1 | C[C@@H]1[C@H](O)[C@@H](C)/C=C/C=C/C=C/C=C/C=C/C=C/C=C/[C@H](O[C@@H]2O[C@H](C)[C@@H](O)[C@H](N)[C@@H]2O)C[C@@H]2O[C@](O)(C[C@@H](O)C[C@@H](O)[C@H](O)CC[C@@H](O)C[C@@H](O)CC(=O)O[C@H]1C)C[C@H](O)[C@H]2C(=O)O [solution formulation of Amphotericin B, Amphotericin B] | significant release of potassium from the RBCs |  |  |  |  |  |  |  |  |  |  |  |  | 
2 | CN[C@H](CC(C)C)C(=O)N[C@H]1C(=O)N[C@@H](CC(N)=O)C(=O)N[C@H]2C(=O)N[C@H]3C(=O)N[C@H](C(=O)N[C@H](C(=O)O)c4cc(O)cc(O)c4-c4cc3ccc4O)[C@H](O)c3ccc(c(Cl)c3)Oc3cc2cc(c3O[C@@H]2O[C@H](CO)[C@@H](O)[C@H](O)[C@H]2O[C@H]2C[C@](C)(N)[C@H](O)[C@H](C)O2)Oc2ccc(cc2Cl)[C@H]1O [Vancomycin Solution, vancomycin] |  | 40 | significant lower bacterial count | significant lower bacterial count |  |  |  |  |  |  |  |  |  | 
3 | gentamicin [Gentamicin Solution] |  | 40 |  |  | significant lower bacterial count | 15 | about 15% | about 35% | 75 | about 75% | 110 | 35 | 35 | 55
